In US8110528B2, “Active ingredient combinations with insecticidal properties” (Bayer Cropscience AG, priority 2006, dated 2012):

Experiments:
Myzus persicae = Myzus persicae test (cabbage leaf dip); assay type: in vivo, green peach aphid (Myzus persicae); settings: cabbage leaves dipped
Text: (§1) The expected activity for a given combination of two active compounds can be calculated according to S. R. Colby, Weeds 15 (1967), 20-22 as follows: • If • X is the kill rate, expressed in % of the untreated control, when active compound A is applied at an application rate of m g/ha or at a concentration of m ppm, • Y is the kill rate, expressed in % of the untreated control, when active compound B is applied at an application rate of n g/ha or at a concentration of n ppm and • E is the kill rate, expressed in % of the untreated control, when active compounds A and B are applied at application rates of m and n g/ha or at a concentration of m and n ppm, then
(§2) If the actual insecticidal kill rate is greater than calculated, the kill of the combination is superadditive, i.e. there is a synergistic effect. In this case, the actual observed kill rate has to be greater than the value for the expected kill rate (E) calculated from the formula given above.
• Solvent: 7 parts by weight of dimethylformamide • Emulsifier: 2 parts by weight of alkylaryl polyglycol ether […]
After the desired period of time, the kill in % is determined. […] The kill rates determined are entered into the Colby formula (see sheet 1).

Phaedon cochleariae = Phaedon cochleariae larvae test (cabbage leaf dip); assay type: in vivo, mustard beetle (Phaedon cochleariae) larvae; settings: cabbage leaves dipped
Text: as §1, §2
• Solvent: 7 parts by weight of dimethylformamide • Emulsifier: 2 parts by weight of alkylaryl polyglycol ether
To produce a suitable preparation of active compound, 1 part by weight of active compound is mixed with the stated amounts of solvent and emulsifier, and the concentrate is diluted with emulsifier-containing water to the desired concentration.
Cabbage leaves (Brassica oleracea) are treated by being dipped into the preparation of active compound of the desired concentration and populated with larvae of the mustard beetle (Phaedon cochleariae) while the leaves are still moist.
After the desired period of time, the kill in % is determined. 100% means that all beetle larvae have been killed; 0% means that none of the beetle larvae have been killed. The kill rates determined are entered into the Colby formula (see sheet 1).

CN/C(=N\[N+](=O)[O-])NCc1cnc(Cl)s1 [clothianidin]
Kill in % after 6d (Myzus persicae; 0.16 ppm): 35% | Kill in % after 4d (Phaedon cochleariae; 4 ppm): 25% | Kill in % after 6d (Phaedon cochleariae; 4 ppm): 21%

CN(Cc1ccc(Cl)nc1)C1=CC(=O)OC1 [compound (Ia)]
Kill in % after 4d (Phaedon cochleariae; 20 ppm): 5%

O=C1C=C(N(Cc2ccc(Cl)nc2)C2CC2)CO1 [compound (Ib)]
Kill in % after 6d (Myzus persicae; 0.8 ppm): 25% | Kill in % after 6d (Phaedon cochleariae; 20 ppm): 11%
